Results published in ChEMBL document CHEMBL4725481, “Novel Betulinic Acid-Nucleoside Hybrids with Potent Anti-HIV Activity” (ACS Med Chem Lett, 2020).

Key:
[1] = Antiviral activity against HIV 1 NL4-3 infected in human MT4 cells assessed as reduction in viral replication and measured on day 3 post infection by Nano-glo luciferase reporter assay; type: functional, cell-based
[2] = Selectivity index, ratio of CC50 for human MT4 cells to EC50 for antiviral activity against HIV1 NL4-3; type: toxicity
[3] = Cytotoxicity against human MT4 cells treated for 3 days measured by Celltiter-glo luminescent assay; type: cell-based; details: time 3 day
[4] = Homo sapiens, NL4-3, MT4, 72 h, read-out: IC50

Structure (SMILES) | IC50 [1, 4] [µM] | IC50 ([1]; mt4) | selectivity ratio [2] | CC50 at 72 h [3] [µM]
C=C(C)[C@@H]1CC[C@]2(C(=O)OC)CC[C@]3(C)[C@H](CC[C@@H]4[C@@]5(C)C[C@@H](Cc6cn([C@]7(CO)O[C@@H](n8ccc(O)nc8=O)[C@@H](F)[C@@H]7O)nn6)[C@H](O)C(C)(C)[C@@H]5CC[C@]43C)[C@@H]12 |  | Not Active |  | 
C=C(C)[C@@H]1CC[C@]2(C(=O)O)CC[C@]3(C)[C@H](CC[C@@H]4[C@@]5(C)C[C@@H](Cc6cn([C@]7(CO)O[C@@H](n8ccc(O)nc8=O)[C@@H](F)[C@@H]7O)nn6)[C@H](O)C(C)(C)[C@@H]5CC[C@]43C)[C@@H]12 | 0.02 |  | 1190 | 23.8
C=C(C)[C@@H]1CC[C@]2(C(=O)OC)CC[C@]3(C)[C@H](CC[C@@H]4[C@@]5(C)C[C@@H](Cc6cn([C@H]7C[C@H](n8cc(C)c(O)nc8=O)O[C@@H]7CO)nn6)C(=O)C(C)(C)[C@@H]5CC[C@]43C)[C@@H]12 |  | Not Active |  | 
C=C(C)[C@@H]1CC[C@]2(C(=O)OC)CC[C@]3(C)[C@H](CC[C@@H]4[C@@]5(C)C[C@@H](Cc6cn([C@]7(CO)O[C@@H](n8ccc(O)nc8=O)[C@@H](F)[C@@H]7O)nn6)C(=O)C(C)(C)[C@@H]5CC[C@]43C)[C@@H]12 |  | Not Active |  | 
C=C(C)[C@@H]1CC[C@]2(C(=O)O)CC[C@]3(C)[C@H](CC[C@@H]4[C@@]5(C)C[C@@H](Cc6cn([C@H]7C[C@H](n8cc(C)c(O)nc8=O)O[C@@H]7CO)nn6)[C@H](O)C(C)(C)[C@@H]5CC[C@]43C)[C@@H]12 | > 1.3 |  |  | > 1.3
C=C(C)[C@@H]1CC[C@]2(C(=O)OC)CC[C@]3(C)[C@H](CC[C@@H]4[C@@]5(C)C[C@@H](Cc6cn([C@]7(CO)O[C@@H](n8ccc(N)nc8=O)[C@@H](F)[C@@H]7O)nn6)[C@H](O)C(C)(C)[C@@H]5CC[C@]43C)[C@@H]12 | 0.048 |  | > 525 | > 25.2
C=C(C)[C@@H]1CC[C@]2(C(=O)OC)CC[C@]3(C)[C@H](CC[C@@H]4[C@@]5(C)C[C@@H](Cc6cn([C@H]7C[C@H](n8cc(C)c(O)nc8=O)O[C@@H]7CO)nn6)[C@H](O)C(C)(C)[C@@H]5CC[C@]43C)[C@@H]12 | > 1.3 |  |  | > 1.3
C=C(C)[C@@H]1CC[C@]2(C(=O)O)CC[C@]3(C)[C@H](CC[C@@H]4[C@@]5(C)C[C@@H](Cc6cn([C@]7(CO)O[C@@H](n8ccc(N)nc8=O)[C@@H](F)[C@@H]7O)nn6)[C@H](O)C(C)(C)[C@@H]5CC[C@]43C)[C@@H]12 | 0.0078 |  | 1230 | 9.6
C=C(C)[C@@H]1CC[C@]2(C(=O)O)CC[C@]3(C)[C@H](CC[C@@H]4[C@@]5(C)CC[C@H](OC(=O)CC(C)(C)C(=O)O)C(C)(C)[C@@H]5CC[C@]43C)[C@@H]12 [BEVIRIMAT] | > 0.021 |  | > 326 | > 6.84

Further lines, with some results ahead:

IC50 [1, 4] [µM] | IC50 ([1]; mt4) | Structure (SMILES) | selectivity ratio [2] | CC50 at 72 h [3] [µM]
0.219 |  | [N-]=[N+]=N[C@]1(CO)O[C@@H](n2ccc(=O)[nH]c2=O)[C@@H](F)[C@@H]1O | > 16 | > 3.48
0.097 |  | C=C(C)[C@@H]1CC[C@]2(C(=O)OC)CC[C@]3(C)[C@H](CC[C@@H]4[C@@]5(C)C[C@@H](Cc6cn([C@]7(CO)O[C@@H](n8ccc(N)nc8=O)[C@@H](F)[C@@H]7O)nn6)C(=O)C(C)(C)[C@@H]5CC[C@]43C)[C@@H]12 | > 260 | > 25.2
0.000262 |  | [N-]=[N+]=N[C@]1(CO)O[C@@H](n2ccc(N)nc2=O)[C@@H](F)[C@@H]1O [RO-0622] | 380 | 0.0996
0.018 |  | Cc1cn([C@H]2C[C@H](N=[N+]=[N-])[C@@H](CO)O2)c(=O)[nH]c1=O [ZIDOVUDINE] | > 20.6 | > 0.37
